Source: US6022526A, “Use of texaphyrins in detection of melanin and melanin metabolites diagnostic of melanotic melanoma” (Pharmacyclics, Inc., priority 1997, dated 2000)

How the values were obtained:
[1] = cited from earlier work
B16 melanoma = experiment: Biodistribution of LuT2BET in B16 melanoma-bearing mice (fluorescence of tissue extracts and plasma); type: in vivo, C57 mice
Protocol: The present example provides results from a study of the biodistribution of lutetium texaphyrin in melanoma-bearing mice. The biodistribution of LuT2BET was analyzed in C57 mice bearing B16 melanoma at 3 h, 5 h, and 24 h after an intravenous administration of 10 or 20 μmol/kg.
(§1) LuT2BET: The synthesis and chemical analysis of lutetium texaphyrin (LuT2BET, texaphyrin A2 of Tables A and B where M is lutetium) was provided in, for example, U.S. Pat. No. 5,622,946 and in PCT publication W095/10307. LuT2BET was dissolved in 5% mannitol at a 2 mM concentration. LuT2BET absorbs strongly in the far-red region of the electromagnetic spectrum, having a molar extinction coefficient of 23,000 M^-1 cm^-1 in this solution at 732 nm.
(§2) Melanoma Cells: B16F10 melanotic melanoma murine cells were obtained from the University of California, San Francisco Cell Culture Facility. These cells are highly pigmented and metastatic in vivo. Cells were grown in Iscove's Modified Dulbeccos' Medium (Gibco, Grand Island, N.Y.) supplemented with 10% fetal bovine serum (JRH Biosciences, Woodland, Calif.) and penicillin/streptomycin (Sigma, St. Louis, Mo.).
Animals and Tumor Model: Inbred C57BL/6N female mice, (C57 mice) seven to eight weeks of age, were obtained from Simonsen Laboratories Inc. (Gilroy, Calif.). […] Tumor size, i.e., length (l), width (w), and height (h), was measured 3 times a week with a vernier caliper. Tumor volumes were calculated using the formula for a hemiellipsoid (Rockwell and Kallman, 1972): […]
Tissue Extraction Procedure: LuT2BET was administered via tail-vein injection at 10 or 20 μmol/kg. Tissues and plasma were analyzed at 3, 5 or 24 h post administration of the photosensitizer. […] Plasma samples (125 μL) were mixed with 10 mM TRITON X-100® and analyzed for texaphyrin content by fluorescence. […] Samples were then analyzed for lutetium texaphyrin content by fluorescence (excitation=450 nm, emission=700-800 nm). […] Texaphyrin accumulation is expressed as μg drug/g tissue (wet weight) or per mL plasma.
Statistical analysis: Values are expressed as mean±SD. […]

[2] = Absorption of LuT2BET in 5% mannitol; type: physicochemical; settings: 732 nm, 2 mM in 5% mannitol
Protocol: as §1

carcinoma SMT-F = experiment: Pharmacological data with radiolabeled [^14 C]-LuT2BET in SMT-F bearing mice; type: in vivo; settings: 8.64 μmol/kg
Protocol: A dose of 8.64 μmol/kg LuT2BET produced drug uptake values of 5.1 μg/g, 4.7 μg/g, and 2.8 μg/g at 3 h, 5 h, and 24 h after injection, yielding tumor:muscle ratios of 8.45:1, 10:1 and 7:1, respectively.

[3] = test system: B16F10 melanotic melanoma murine cells; experiment: Confocal laser scanning (fluorescent) microscopy of lutetium texaphyrin in melanoma cells; type: cell-based; settings: 20 μg/ml LuT2BET, 1 to 24 h
Protocol: Fluorescent Microscopy of Texaphyrin in Melanoma Cells
The present example provides results from fluorescent microscopy studies using lutetium texaphyrin (LuT2BET) incorporated into melanoma cells.
B16F10 melanotic melanoma murine cells as described in Example 2 were incubated with 20 μg/ml LuT2BET for 1 to 24 h in Waymouth's medium supplemented with 15% fetal bovine serum. The adherent cells were washed thoroughly with PBS (3×) and examined using confocal laser scanning microscopy.
as §2

Row | SMILES | tumor specificity ([1]; compared with an ideal detecting agent) | levels in normal brain (caudate) ([1]; in vivo) | tumor:muscle ratio (x:1) (B16 melanoma; 10 μmol/kg i.v., 5 h) | tumor localizing capacity (B16 melanoma; mouse, in vivo) | uptake into B16 melanoma compared to carcinoma SMT-F (B16 melanoma; mouse, in vivo) | molar extinction coefficient [2] | tumor:muscle ratio (x:1) (carcinoma SMT-F; 3 h) | drug uptake (tumor) (carcinoma SMT-F; 3 h after injection) | tumor:muscle ratio (x:1) (carcinoma SMT-F; 5 h) | drug uptake (tumor) (carcinoma SMT-F; 5 h after injection) | tumor:muscle ratio (x:1) (carcinoma SMT-F; 24 h) | drug uptake (tumor) (carcinoma SMT-F; 24 h after injection) | localization at dendritic processes ([3]; listed as Lutetium texaphyrin) | localization in melanosomes ([3]; listed as Lutetium texaphyrin) | localization at dendritic processes ([3]; listed as lutetium texaphyrin) | localization in melanosomes ([3]; listed as lutetium texaphyrin)
1 | CN1CCc2ccc(O)cc2C(c2ccccc2)C1 (stereo not shown) [BZZ, 2,3,4,5-tetrahydro-3-methyl-5-phenyl-1H-3-benzazepin-7-ol] | significantly less tumor-specific than an ideal detecting agent | levels that may be toxic | – | – | – | – | – | – | – | – | – | – | – | – | – | –
2 | CC(=O)[O-].CC(=O)[O-].CCc1c(CC)c2cc3nc(cnc4cc(OCCOCCOCCOC)c(OCCOCCOCCOC)cc4ncc4nc(cc1[n-]2)C(CCCO)=C4C)C(C)=C3CCCO.O.[Lu+3] [LuT2BET] | – | – | 15 | good tumor localizing capacity | increased uptake | 23,000 M^-1 cm^-1 | 8.45 | 5.1 µg/g | 10 | 4.7 µg/g | 7 | 2.8 µg/g | collect at the dendritic processes | highly concentrated in the melanosomes of melanoma cells | collects at the dendritic processes | highly concentrated in the melanosomes of melanotic melanoma cells
